# Reference: patent US10131652B2, “Pyrimidinyloxy benzene derivatives as herbicides” (E. I. DU PONT DE NEMOURS AND COMPANY, priority 2014, dated 2018)
# How the values were obtained:
# Type in all cases: in vivo
# [1] = system: blackgrass (Alopecurus myosuroides); assay: Test B postemergence plant response
# Procedure, shortened: (§1)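 Seedlings in a loam soil and sand mix received a postemergence application of the formulated chemicals at the one- to two-leaf stage (2–10 cm tall). They were kept in a greenhouse for roughly 10 days, then scored for injury relative to untreated plants, 0 meaning no effect and 100 complete control.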
# [2] = system: galium (catchweed bedstraw, Galium aparine); assay: Test B postemergence plant response
# Procedure, shortened: as §1
# [3] = system: giant foxtail (Setaria faberii); assay: Test B pre-/postemergence plant response
# Procedure, shortened: (§2)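 Ratings reflect visual injury versus untreated controls, from 0 for no effect to 100 for complete control, assessed roughly 10 days after treatment. Formulation: non-phytotoxic solvent mix with surfactant; pre- and postemergence sprays on plants grown in loam soil and sand.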
# corn (Zea mays) = assay: Test B pre-/postemergence plant response
# Procedure, shortened: as §2
# [4] = system: wheat (Triticum aestivum); assay: Test B pre-/postemergence plant response
# Procedure, shortened: as §2
# [5] = system: ragweed (common ragweed, Ambrosia elatior); assay: Test B pre-/postemergence plant response
# Procedure, shortened: as §2
# [6] = system: barnyardgrass (Echinochloa crus-galli); assay: Test B pre-/postemergence plant response
# Procedure, shortened: as §2
# [7] = system: Italian ryegrass (Lolium multiflorum); assay: Test B pre-/postemergence plant response
# Procedure, shortened: as §2
# kochia (Kochia scoparia) = assay: Test B pre-/postemergence plant response
# Procedure, shortened: as §2
# [8] = system: pigweed (Amaranthus retroflexus); assay: Test B pre-/postemergence plant response
# Procedure, shortened: as §2
# [9] = system: small-flower umbrella sedge (Cyperus difformis); assay: Test C flooded paddy test plant response; settings: Flood, 250 g ai/ha; scale of 0 to 100 where 0 is no effect and 100 is complete control; 13 to 15 days
# Procedure, shortened: (§3)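 2-leaf plants; flood 3 cm, cpd into paddy water; greenhouse 13–15 d; visual score vs untreated, 0 = no effect, 100 = complete control; dash = no result.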
# [10] = system: barnyardgrass (Echinochloa crus-galli); assay: Test C flooded paddy test plant response; settings: Flood, 250 g ai/ha; scale of 0 to 100 where 0 is no effect and 100 is complete control; 13 to 15 days
# Procedure, shortened: as §3
# [11] = system: ducksalad (Heteranthera limosa); assay: Test C flooded paddy test plant response; settings: Flood, 250 g ai/ha; scale of 0 to 100 where 0 is no effect and 100 is complete control; 13 to 15 days
# Procedure, shortened: as §3
# rice (Oryza sativa) = assay: Test C flooded paddy test plant response; settings: Flood, 250 g ai/ha; scale of 0 to 100 where 0 is no effect and 100 is complete control; 13 to 15 days
# Procedure, shortened: as §3
# [12] = 125 g ai/ha, postemergence, 0 to 100 scale, 0 no effect, 100 complete control
# [13] = Postemergence, 31 g ai/ha, 0 to 100 scale (0 no effect, 100 complete control)
# [14] = 31 g ai/ha, Preemergence, 0 to 100 scale where 0 is no effect and 100 is complete control
# [15] = Preemergence, 125 g ai/ha, 0 to 100 scale (0 no effect, 100 complete control)
# [16] = Postemergence, 1000 g ai/ha, 0 to 100 scale (0 no effect, 100 complete control)
# [17] = Preemergence, 1000 g ai/ha, 0 to 100 scale (0 no effect, 100 complete control)
# [18] = Postemergence, 500 g ai/ha, 0 to 100 scale (0 no effect, 100 complete control)
# [19] = Preemergence, 125 g ai/ha, 0 to 100 scale where 0 is no effect and 100 is complete control
# [20] = Preemergence, 500 g ai/ha, 0 to 100 scale where 0 is no effect and 100 is complete control
# [21] = 31 g ai/ha, Postemergence, 0 to 100 scale, 0 no effect, 100 complete control
smiles,measurement,setting,value
Cc1csc(-c2ccccc2Oc2ncc(Cl)cn2)c1 [Compound 216],"Plant response rating, Blackgrass",[1]; [12],10
same,"Plant response rating, Blackgrass",[1]; [13],0
same,"Plant response rating, Galium",[2]; [12],50
same,"Plant response rating, Galium",[2]; [13],20
same,"Plant response rating, Foxtail, Giant",[3]; [14],0
same,"Plant response rating, Foxtail, Giant",[3]; [12],0
same,"Plant response rating, Foxtail, Giant",[3]; [13],0
same,"Foxtail, Giant plant response rating",[3]; [15],0
same,"Plant response rating, Corn",corn (Zea mays); [12],10
same,"Plant response rating, Corn",corn (Zea mays); [13],0
same,"Plant response rating, Wheat",[4]; [12],0
same,"Plant response rating, Wheat",[4]; [13],0
same,"Plant response rating, Ragweed",[5]; [14],0
same,"Plant response rating, Ragweed",[5]; [12],0
same,"Plant response rating, Ragweed",[5]; [13],0
same,Ragweed plant response rating,[5]; [15],0
same,"Plant response rating, Barnyardgrass",[6]; [14],0
same,"Plant response rating, Barnyardgrass",[6]; [12],10
same,"Plant response rating, Barnyardgrass",[6]; [13],10
same,Barnyardgrass plant response rating,[6]; [15],10
same,"Plant response rating, Ryegrass, Italian",[7]; [14],0
same,"Plant response rating, Ryegrass, Italian",[7]; [12],0
same,"Plant response rating, Ryegrass, Italian",[7]; [13],0
same,"Ryegrass, Italian plant response rating",[7]; [15],0
same,"Plant response rating, Kochia",kochia (Kochia scoparia); [14],0
same,"Plant response rating, Kochia",kochia (Kochia scoparia); [12],20
same,"Plant response rating, Kochia",kochia (Kochia scoparia); [13],10
same,Kochia plant response rating,kochia (Kochia scoparia); [15],0
same,"Plant response rating, Pigweed",[8]; [14],0
same,"Plant response rating, Pigweed",[8]; [12],30
same,"Plant response rating, Pigweed",[8]; [13],10
same,Pigweed plant response rating,[8]; [15],0
same,"Sedge, Umbrella plant response rating",[9],0
same,Barnyardgrass plant response rating,[10],0
same,Ducksalad plant response rating,[11],0
same,Rice plant response rating,rice (Oryza sativa),0
C=C(C)c1cc(-c2ccccc2Oc2ncc(Br)cn2)on1 [Compound 197],"Plant response rating, Blackgrass",[1]; [12],0
same,"Plant response rating, Blackgrass",[1]; [13],0
same,"Plant response rating, Galium",[2]; [12],50
same,"Plant response rating, Galium",[2]; [13],10
same,"Plant response rating, Foxtail, Giant",[3]; [14],0
same,"Plant response rating, Foxtail, Giant",[3]; [12],0
same,"Plant response rating, Foxtail, Giant",[3]; [13],0
same,"Foxtail, Giant plant response rating",[3]; [15],0
same,"Plant response rating, Corn",corn (Zea mays); [12],0
same,"Plant response rating, Corn",corn (Zea mays); [13],0
same,"Plant response rating, Wheat",[4]; [12],0
same,"Plant response rating, Wheat",[4]; [13],0
same,"Plant response rating, Ragweed",[5]; [14],0
same,"Plant response rating, Ragweed",[5]; [12],0
same,"Plant response rating, Ragweed",[5]; [13],0
same,Ragweed plant response rating,[5]; [15],0
same,"Plant response rating, Barnyardgrass",[6]; [14],0
same,"Plant response rating, Barnyardgrass",[6]; [12],0
same,"Plant response rating, Barnyardgrass",[6]; [13],0
same,Barnyardgrass plant response rating,[6]; [15],0
same,"Plant response rating, Ryegrass, Italian",[7]; [14],0
same,"Plant response rating, Ryegrass, Italian",[7]; [12],0
same,"Plant response rating, Ryegrass, Italian",[7]; [13],0
same,"Ryegrass, Italian plant response rating",[7]; [15],0
same,"Plant response rating, Kochia",kochia (Kochia scoparia); [14],0
same,"Plant response rating, Kochia",kochia (Kochia scoparia); [12],0
same,"Plant response rating, Kochia",kochia (Kochia scoparia); [13],0
same,Kochia plant response rating,kochia (Kochia scoparia); [15],0
same,"Plant response rating, Pigweed",[8]; [14],0
same,"Plant response rating, Pigweed",[8]; [12],10
same,"Plant response rating, Pigweed",[8]; [13],10
same,Pigweed plant response rating,[8]; [15],0
same,"Sedge, Umbrella plant response rating",[9],0
same,Barnyardgrass plant response rating,[10],20
same,Ducksalad plant response rating,[11],0
same,Rice plant response rating,rice (Oryza sativa),0
Clc1cnc(Oc2ccccc2-c2ccc(Cl)nn2)nc1 [Compound 186],"Plant response rating, Blackgrass",[1]; [16],20
same,"Plant response rating, Galium",[2]; [16],20
same,"Plant response rating, Foxtail, Giant",[3]; [16],30
same,"Plant response rating, Foxtail, Giant",[3]; [17],100
same,"Plant response rating, Corn",corn (Zea mays); [16],0
same,"Plant response rating, Wheat",[4]; [16],0
same,"Plant response rating, Ragweed",[5]; [16],50
same,"Plant response rating, Ragweed",[5]; [17],70
same,"Plant response rating, Barnyardgrass",[6]; [16],0
same,"Plant response rating, Barnyardgrass",[6]; [17],20
same,"Plant response rating, Ryegrass, Italian",[7]; [16],0
same,"Plant response rating, Ryegrass, Italian",[7]; [17],0
same,"Plant response rating, Kochia",kochia (Kochia scoparia); [16],30
same,"Plant response rating, Kochia",kochia (Kochia scoparia); [17],100
same,"Plant response rating, Pigweed",[8]; [16],20
same,"Plant response rating, Pigweed",[8]; [17],100
same,"Sedge, Umbrella plant response rating",[9],0
same,Barnyardgrass plant response rating,[10],0
same,Ducksalad plant response rating,[11],0
same,Rice plant response rating,rice (Oryza sativa),0
Fc1cnc(Oc2ccccc2-c2cc(Cl)sn2)nc1 [Compound 193],"Plant response rating, Blackgrass",[1]; [16],90
same,"Plant response rating, Galium",[2]; [16],100
same,"Plant response rating, Foxtail, Giant",[3]; [16],90
same,"Plant response rating, Foxtail, Giant",[3]; [17],100
same,"Plant response rating, Corn",corn (Zea mays); [16],10
same,"Plant response rating, Wheat",[4]; [16],20
same,"Plant response rating, Ragweed",[5]; [16],90
same,"Plant response rating, Ragweed",[5]; [17],80
same,"Plant response rating, Barnyardgrass",[6]; [16],90
same,"Plant response rating, Barnyardgrass",[6]; [17],100
same,"Plant response rating, Ryegrass, Italian",[7]; [16],30
same,"Plant response rating, Ryegrass, Italian",[7]; [17],0
same,"Plant response rating, Kochia",kochia (Kochia scoparia); [16],100
same,"Plant response rating, Kochia",kochia (Kochia scoparia); [17],100
same,"Plant response rating, Pigweed",[8]; [16],100
same,"Plant response rating, Pigweed",[8]; [17],100
same,"Sedge, Umbrella plant response rating",[9],0
same,Barnyardgrass plant response rating,[10],0
same,Ducksalad plant response rating,[11],65
same,Rice plant response rating,rice (Oryza sativa),0
Cn1nnnc1-c1ccccc1Oc1ncc(Cl)cn1 [Compound 47],"Plant response rating, Blackgrass",[1]; [12],0
same,"Plant response rating, Blackgrass",[1]; [18],0
same,"Plant response rating, Galium",[2]; [12],30
same,"Plant response rating, Galium",[2]; [18],60
same,"Plant response rating, Foxtail, Giant",[3]; [12],0
same,"Plant response rating, Foxtail, Giant",[3]; [18],50
same,"Plant response rating, Foxtail, Giant",[3]; [19],10
same,"Plant response rating, Foxtail, Giant",[3]; [20],30
same,"Plant response rating, Corn",corn (Zea mays); [12],0
same,"Plant response rating, Corn",corn (Zea mays); [18],0
same,"Plant response rating, Wheat",[4]; [12],0
same,"Plant response rating, Wheat",[4]; [18],10
same,"Plant response rating, Ragweed",[5]; [12],20
same,"Plant response rating, Ragweed",[5]; [18],30
same,"Plant response rating, Ragweed",[5]; [19],10
same,"Plant response rating, Ragweed",[5]; [20],60
same,"Plant response rating, Barnyardgrass",[6]; [12],0
same,"Plant response rating, Barnyardgrass",[6]; [18],0
same,"Plant response rating, Barnyardgrass",[6]; [19],0
same,"Plant response rating, Barnyardgrass",[6]; [20],0
same,"Plant response rating, Ryegrass, Italian",[7]; [12],0
same,"Plant response rating, Ryegrass, Italian",[7]; [18],0
same,"Plant response rating, Ryegrass, Italian",[7]; [19],0
same,"Plant response rating, Ryegrass, Italian",[7]; [20],0
same,"Plant response rating, Kochia",kochia (Kochia scoparia); [12],60
same,"Plant response rating, Kochia",kochia (Kochia scoparia); [18],80
same,"Plant response rating, Kochia",kochia (Kochia scoparia); [19],60
same,"Plant response rating, Kochia",kochia (Kochia scoparia); [20],70
same,"Plant response rating, Pigweed",[8]; [12],50
same,"Plant response rating, Pigweed",[8]; [18],70
same,"Plant response rating, Pigweed",[8]; [19],30
same,"Plant response rating, Pigweed",[8]; [20],60
same,"Sedge, Umbrella plant response rating",[9],0
same,Barnyardgrass plant response rating,[10],0
same,Ducksalad plant response rating,[11],0
same,Rice plant response rating,rice (Oryza sativa),0
FC(F)(F)COCc1cc(-c2ccccc2Oc2ncc(Br)cn2)on1 [Compound 129],"Plant response rating, Blackgrass",[1]; [21],0
same,"Plant response rating, Blackgrass",[1]; [12],0
same,"Plant response rating, Galium",[2]; [12],10
same,"Plant response rating, Foxtail, Giant",[3]; [21],0
same,"Plant response rating, Foxtail, Giant",[3]; [14],0
same,"Plant response rating, Foxtail, Giant",[3]; [12],10
same,"Foxtail, Giant plant response rating",[3]; [15],0
same,"Plant response rating, Corn",corn (Zea mays); [21],0
same,"Plant response rating, Corn",corn (Zea mays); [12],10
same,"Plant response rating, Wheat",[4]; [12],0
same,"Plant response rating, Ragweed",[5]; [14],0
same,"Plant response rating, Ragweed",[5]; [12],0
same,Ragweed plant response rating,[5]; [15],0
same,"Plant response rating, Barnyardgrass",[6]; [21],0
same,"Plant response rating, Barnyardgrass",[6]; [14],0
same,"Plant response rating, Barnyardgrass",[6]; [12],10
same,Barnyardgrass plant response rating,[6]; [15],0
same,"Plant response rating, Ryegrass, Italian",[7]; [14],0
same,"Plant response rating, Ryegrass, Italian",[7]; [12],0
same,"Ryegrass, Italian plant response rating",[7]; [15],0
same,"Plant response rating, Kochia",kochia (Kochia scoparia); [14],0
same,"Plant response rating, Kochia",kochia (Kochia scoparia); [12],10
same,Kochia plant response rating,kochia (Kochia scoparia); [15],0
same,"Plant response rating, Pigweed",[8]; [14],0
same,"Plant response rating, Pigweed",[8]; [12],30
same,Pigweed plant response rating,[8]; [15],0
same,"Sedge, Umbrella plant response rating",[9],0
same,Barnyardgrass plant response rating,[10],0
same,Ducksalad plant response rating,[11],0
same,Rice plant response rating,rice (Oryza sativa),0
